Measurements reported in patent publication US12144788B2, “Visual cycle modulators” (CASE WESTERN RESERVE UNIVERSITY, priority 2017, dated 2024).
Entries after “also recorded” stand apart in the source; their conditions may differ.

What was measured:
[1] = system: visual chromophore regeneration in C57BL6J mouse eyes; test: visual chromophore recovery assay (ocular 11-cis-retinal by HPLC after bleach); assay type: in vivo
Procedure: FIG. 4 illustrates inhibition of visual chromophore regeneration in C57BL6J mouse eyes by MB compounds. The MB drugs were administrated to mice by oral gavage 24 h prior to light exposure for 10 min. Then all mice recovered under darkness for 6 h.
(§1) Abca4^−/−Rdh8^−/− mice on a C57BL/6J background were generated as previously described. Male and female WT mice with C57BL/6J backgrounds were obtained from The Jackson Laboratory. Abca4^−/−Rdh8^−/− mice used in this study were homozygous for the Leu450 allele of Rpe65 as determined by a genotyping protocol published previously and free of Crb1/rd8 and rd/rd mutations Animals were housed either in the animal facility at the Case Western Reserve University School of Medicine, where they received a standard chow diet (LabDiet 5053) and were maintained under a 12-h light (˜300 lux) and 12-h dark cycle or at the Cole Eye Institute animal facility where they were. Mice were dark adapted overnight prior to all experiments. A cohort of Rdh8^−/−Abca4^−/− or C57BL/6J mice was used when they reached the age of 1 to 2 months, and both sexes were used evenly. All tested primary amines were suspended in 100 μl soybean oil with less than 10% (v/v) DMSO and were administered by oral gavage with a 22-gauge feeding needle. Experimental manipulations in the dark were done under dim red light transmitted through a Kodak No. 1 Safelight Filter (transmittance >560 nm).
After bright light exposure resulting in photoactivation of 95% of rhodopsin, mice were kept in the dark for 6 h. Then, the animals were euthanized and their eyes were collected and homogenized in 10 mM sodium phosphate buffer, pH 7.4, containing 50% methanol (v/v) and 40 mM hydroxylamine. The resulting mixture was extracted with 4 ml of hexanes.
Next, we tested the effects of the MB compound series on retinoid cycle function in the living mouse. […] After the light treatment, mice were allowed to dark adapt for 6 h before their ocular retinoid content was determined by HPLC. […] To examine the possibility that the lack of MB-008 efficacy at 24 h was due to insufficient concentrations resulting from a shorter elimination half-life or poorer bioavailability, we repeated the experiment with the mice subjected to light exposure 4 h after MB-008 administration. A 100 μg dose of MB-008 suppressed visual chromophore regeneration by ˜80%, supporting the idea that the retinal concentration of MB-008 could be sub-effective at the longer post-treatment light challenge.

[2] = identification of atRAL Schiff base conjugates with MB compounds in mouse eyes; assay type: in vivo; conditions: Abca4−/−Rdh8−/− mice, 50 mg/kg oral gavage, bright light exposure 10 min; mass spectrometry versus standards
Procedure: FIGS. 6(A-B) illustrate identification of retinal Schiff base conjugates in Abca4^−/− Rdh8^−/− mice treated with MB-005 and MB-006. Following drug administration, mice were exposed to intense light for 10 min. After a 30 min recovery under darkness, animals were sacrificed and retinoids were extracted from the eyes. (A, B) Shown in the top panels are selective ion chromatograms for MB-005-retinal conjugates (A, at m/z=572.6) and MB-006-retinal conjugates (B, at m/z=588.6). Panels on the bottom show the mass spectra of the peaks coinciding with the retention times of their authentic standards. The insets display the MS/MS fragmentation patterns of the two imines, which were identical to the corresponding standards.
MB-005 or MB-006 (50 mg/kg) were administrated by oral gavage to Abca4^−/−Rdh8^−/− mice 24 h prior to light exposure. After exposure to fluorescent light for 10 min, animals were euthanized and their eyes were collected and homogenized in acetonitrile. After centrifugation, the supernatant was concentrated to 400 μl under vacuum. […]
With the effects of these compounds on visual cycle function established we next sought to examine their ability to form retinal-Schiff base conjugates in vivo. […] Retinoids were extracted and analyzed by mass spectrometry. […]

[3] = system: Abca4−/−Rdh8−/− mice; test: protection against light-induced retinal degeneration (OCT, ONL thickness); assay type: in vivo, mouse
Procedure: FIGS. 7(A-B) illustrate protective effects of MB compounds against light-induced retinal degeneration in Abca4^−/−Rdh8^−/− mice. Drugs were administrated at the indicated doses to 4-6 week-old Abca4^−/−Rdh8^−/− mice (weight ˜20 g) by oral gavage. After a 24 h dark adaptation, mice were exposed to 10,000 lux light for 30 min and then returned to a dark environment for 3 days. (A) Representative OCT images of mice treated with MB compounds. A dramatic decrease in the ONL indicates advanced retinal degeneration. The black scale beside the DMSO image represents 50 μm. (B) Retinal protective effects exerted by MB compounds as quantified by average ONL thickness. Only non-scattering ONL layers were measured. For images in which the ONL layer boundary was obscured due to light scattering, the ONL length was recorded as 0 μm. Error bars represent standard deviations; n=3-5 for each group.
as §1
After dark adaptation for 24 h, Abca4^−/−Rdh8^−/− mice with pupils dilated by 1% tropicamide were exposed to fluorescent light (10,000 lux; 150 W spiral lamp; Commercial Electric) for 30 min in a white paper bucket (Papersmith) and then kept in the dark for an additional 3 days. Development of retinal degeneration was then determined by ultra-high-resolution spectral domain OCT (SD-OCT; Bioptigen) and ERG as previously described.
To examine the ability of […] cause retinal damage in the absence of treatment with protective agents. Three days later retinas were imaged in vivo by optical coherence tomography, with preservation of outer nuclear layer thickness and light scattering properties serving as markers for retinal health. MB-001, which is capable of preventing light-induced retinal degeneration through both direct RPE65 inhibition as well as retinal sequestration served as a positive control for these experiments.

[4] = target: RPE65 (Bos taurus, UniProt Q28175); test: in vitro retinoid isomerase activity assay with bovine RPE microsomes; conditions: up to concentrations of 50 μM
Sequence of RPE65 (Q28175 whole entry): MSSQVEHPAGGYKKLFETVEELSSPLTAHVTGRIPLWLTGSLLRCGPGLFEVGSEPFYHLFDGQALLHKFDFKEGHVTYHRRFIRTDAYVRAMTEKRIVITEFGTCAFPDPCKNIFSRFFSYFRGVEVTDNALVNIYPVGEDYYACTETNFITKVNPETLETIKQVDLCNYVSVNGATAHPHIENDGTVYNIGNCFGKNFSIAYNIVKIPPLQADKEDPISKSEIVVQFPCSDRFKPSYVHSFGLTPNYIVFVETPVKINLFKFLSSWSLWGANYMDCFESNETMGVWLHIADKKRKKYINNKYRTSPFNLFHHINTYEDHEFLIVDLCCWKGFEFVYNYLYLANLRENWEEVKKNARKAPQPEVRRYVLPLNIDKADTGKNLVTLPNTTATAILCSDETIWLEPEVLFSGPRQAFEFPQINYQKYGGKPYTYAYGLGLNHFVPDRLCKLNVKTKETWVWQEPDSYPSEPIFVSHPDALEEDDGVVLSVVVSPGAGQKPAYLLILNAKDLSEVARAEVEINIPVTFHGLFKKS
Procedure: Primary amines were pre-incubated with bovine RPE microsomes at room temperature for 5 min, then all-trans-retinol was added and the mixtures were incubated at 37° C. All incubation mixtures were quenched by the addition of methanol after 1 h of incubation. Inhibition of RPE65 enzymatic activity was measured as a decline in 11-cis-retinol production.
Synthesized primary amine (1 μl in DMF, with the final concentration ranging between 50 nM and 50 μM) was added to 10 mM Bis-Tris propane/HCl buffer, pH 7.4, containing 150 μg RPE microsomes, 1% BSA, 1 mM disodium pyrophosphate, and 20 μM aporetinaldehyde-binding protein 1 (CRALBP). The resulting mixture was pre-incubated at room temperature for 5 min. Then, all-trans-retinol (1 μl in DMF, at a final concentration of 20 μM) was added. The resulting mixture was incubated at 37° C. for 1 h. The reaction was quenched by adding 300 μl methanol, and products were extracted with 300 μl hexanes. Production of 11-cis-retinol was quantified by normal-phase HPLC with 10% (v/v) EtOAc in hexanes as the eluent at a flow rate of 1.4 ml/min. Retinoids were detected by monitoring their absorbance at 325 nm and quantified based on a standard curve representing the relationship between the amount of synthetic 11-cis-retinol standard and the area under the corresponding chromatographic peak.
To test these structural predictions, we examined the inhibitory activity of the compounds against RPE65 activity in an in vitro retinoid isomerase assay using bovine RPE microsomes as the enzyme source.

inhibition against retinoid isomerization [4]: minimal or no inhibition
SMILES: CC(C)c1cc(OCC2CCCCC2)cc(C(O)CCN)c1 (stereo not shown) [MB-005, 3-Amino-1-(3-(cyclohexylmethoxy)-5-isopropylphenyl)propan-1-ol]
effect on 11-cis-retinal recovery / visual cycle function ([1]; 500 μg (0.5 mg/mouse) oral gavage 24 h before light exposure, 6 h dark): minimal effects; also recorded: no measurable effect
visual cycle function ([1]; 2 mg/mouse oral gavage): severely impaired
fold greater inhibition of visual cycle function at 4 h versus 24 h ([1]; 4 h versus 24 h between dose and light): ~3 fold
effect of shortening the time between drug administration and the light challenge ([1]; shorter interval versus 24 h): enhanced the inhibitory effects
inhibition of 11-cis-retinal recovery (suppression of visual chromophore regeneration) ([1]; two-fold higher dose than 500 μg (1 mg per mouse), oral gavage 24 h before light exposure): ~50% and approximately 60%
retinal Schiff base adducts in eye extracts [2]: contained compounds matching the expected molecular weight of the respective Schiff base adducts
protective effect compared to the MB-001 control ([3]; 0.5 mg/mouse oral gavage 24 h before light): ~50%
protection against light-induced retinal degeneration ([3]; 2 mg/mouse oral gavage 24 h before light): fully protected
protective effect compared to the MB-001 control ([3]; doubling of 0.5 mg/mouse (1 mg/mouse), oral gavage 24 h before light): ~80%
